These are literature values, as cited in patent US20110152372A1, “ANHYDROUS PETROLEUM JELLY/ELASTOMER-FREE DEPIGMENTING COMPOSITIONS COMPRISING A SOLUBILIZED PHENOLIC COMPOUND AND A RETINOID” (Galderma Research & Development, priority 2008, published 2011).

Read-outs that look alike come from different tables or passages of the source.

As to `Oc1ccc(O)cc1` [hydroquinone], the Incidence of irritation result reads like this: (10% concentrations) “relatively high”; (concentration of 2%) “virtually nonexistent”; (preparations with a 5% dose) “reduces greatly”.
